We go through 21 molecules from patent publication US7064122B2, “Pancreatic lipase inhibitor compounds, their synthesis and use” (OSI Pharmaceuticals, Inc., priority 2001, dated 2006).

In data set [1] the target is T1, type VI-S porcine pancreatic lipase (Sus scrofa, UniProt P00591).
T1 construct: purchased Sigma type VI-S (catalogue number not given)
T1 sequence (P00591 1-450): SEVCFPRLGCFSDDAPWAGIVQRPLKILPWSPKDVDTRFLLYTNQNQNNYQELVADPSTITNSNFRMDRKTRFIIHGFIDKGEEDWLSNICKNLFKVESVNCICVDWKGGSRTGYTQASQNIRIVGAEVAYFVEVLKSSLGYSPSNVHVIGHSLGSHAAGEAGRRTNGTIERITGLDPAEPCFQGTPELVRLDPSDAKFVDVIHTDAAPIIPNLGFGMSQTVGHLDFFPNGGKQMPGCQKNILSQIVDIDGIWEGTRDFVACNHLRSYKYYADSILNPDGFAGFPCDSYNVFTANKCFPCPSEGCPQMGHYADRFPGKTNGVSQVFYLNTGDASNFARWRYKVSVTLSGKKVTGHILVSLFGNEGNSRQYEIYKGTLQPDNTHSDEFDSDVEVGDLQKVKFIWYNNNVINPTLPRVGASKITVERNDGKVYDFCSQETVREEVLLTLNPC
Kind of data set: Pancreatic lipase assay (pH-stat titration, triolein substrate). The data set is classed as biochemical. Details: Ymax: unit not given here. Particulars: for Ymax / k: 7.0 nM lipase, 700 nM inhibitor, pH 8.0; for Ymax: Ymax of the fit Y=Ymax*(1-exp(-k*X)); for k: k fitted for the 12.5 min after inhibitor addition, Y=Ymax*(1-exp(-k*X)); for inhibition at 0.7 µM: 12.5 min. Here is the method: The use of a pancreatic lipase assay has been described in the literature (Hadvary, P. et al. Biochem. J. (1988) 256: 357-361; Hadvary, P. et al. Biochem. J. (1991) 266:2021-2027). Pancreatic lipase activity was measured using a 718 Stat Titrino (Brinkmann) programmed to maintain a pH of 8.0 using 0.1 N NaOH. The substrate mixture (pH 8) contained 1 mM taurochenodeoxycholate (Sigma), 9 mM taurodeoxycholate (Sigma), 0.1 mM cholesterol (Sigma), 1 mM phosphatidylcholine (Sigma), 1.5% BSA, 2 mM Tris base, 100 mM NaCl, 10 mM CaCl2, and 3% triolein (Sigma). The mixture (5 mL) was emulsified via sonication at room temperature, and added to the titration vessel with rapid stirring. The Stat Titrino was turned on and lipase (7.0 nM type VI-S porcine pancreatic lipase (Sigma) dissolved in PBS) was added to the vessel. After 10 min, inhibitor (700 nM dissolved in 100% DMSO) was added and the reaction continued for an additional 12.5 min. The k values were determined for the 12.5 min after the addition of the inhibitor using a one phase exponential association equation, Y=Ymax*(1−exp(−k*X)), k values for lipase alone were 0.0004±0.0001 sec. The k values for compounds disclosed herein are >0.0004±0.0001 sec.

Regarding `CCCCCCCCNc1nc2sc(C(=O)NCc3ccc(OC)c(OC)c3)c(C)c2c(=O)o1` [Entry 66, 5-Methyl-2-octylamino-4-oxo-4H-thieno(2,3-d)(1,3)oxazine-6-carboxylic acid (2-(3,4-dimethoxy-phenyl)-methyl)-amide], the melting point is 159 to 163 °C. In data set [1], the Ymax amounted to 0.118 and the k is given as 1.027 10-3.s-1.

On to `CCCCCCCCCCCCCCNc1nc2sc(C(=O)NCCCCCCCC)c(C)c2c(=O)o1` [Entry 25, 5-Methyl-4-oxo-2-tetradecylamino-4H-thieno[2,3-d][1,3]oxazine-6-carboxylic acid octylamide], for which the melting point fell in the range of 145 to 145.8 °C. In data set [1], the k is 1.629 10-3.s-1.

The molecule `CCCCCCCCNc1nc2sc(CCCCCCC)cc2c(=O)o1` [Entry 61, 6-Heptyl-2-octylamino-thieno[2,3-d][1,3]oxazin-4-one] showed a melting point of 89 to 91 °C. In data set [1], the Ymax turned out to be 0.460 and the k is reported as 0.247 10-3.s-1.

Molecule `CCCCCCCCNc1nc2sc(C(=O)N(CCCCCCCC)CCCCCCCC)c(C)c2c(=O)o1` [Entry 41, 5-Methyl-2-octylamino-4-oxo-4H-thieno[2,3-d][1,3]oxazine-6-carboxylic acid dioctylamide] had a melting point of 48 to 50 °C. In data set [1], the Ymax came to 0.130 and the k is recorded as 1.050 10-3.s-1.

For `CCCCCCCCNc1nc2sc(C(=O)OC(CCCC)CCCC)c(C)c2c(=O)o1` [Entry 39, 5-Methyl-2-octylamino-4-oxo-4H-thieno[2,3-d][1,3]oxazine-6-carboxylic acid 1-butyl-pentyl ester], the melting point lay in the range of 90 to 92 °C. For the same molecule, in data set [1], the Ymax was 0.156 and the k is given as 1.253 10-3.s-1.

`CCCCCCCCNC(=O)c1sc2nc(NCCCCCCCC)oc(=O)c2c1C` [Entry 18, 5-Methyl-2-octylamino-4-oxo-4H-thieno[2,3-d][1,3]oxazine-6-carboxylic acid octylamide]: the melting point fell in the range of 152 to 152.8 °C. In addition, in data set [1], the k is given as 1.036 10-3.s-1 and the inhibition at 0.7 µM stood at 18%.

`CCCCCCCCNc1nc2sc(C(=O)N3CCC(Cc4ccccc4)CC3)c(C)c2c(=O)o1` [Entry 43, 6-(4-Benzyl-piperidine-1-carbonyl)-5-methyl-2-octylamino-thieno[2,3-d][1,3]oxazin-4-one] returned a melting point of 100 to 106 °C. In data set [1], the k is 0.009 10-3.s-1.

`CCCCCCCCNc1nc2sc(C(=O)NCCCCc3ccccc3)c(C)c2c(=O)o1` [Entry 79, 5-Methyl-2-octylamino-4-oxo-4H-thieno(2,3-d)(1,3)oxazine-6-carboxylic acid (4-phenyl-butyl)-amide]: the melting point is 153 to 154 °C. Further, the inhibition at 0.7 µM in data set [1] was 69.5%.

`CCCCCCCCNc1nc2sc(C(=O)N3CCc4cc(OC)c(OC)cc4C3)c(C)c2c(=O)o1` [Entry 65, 6-(6,7-Dimethoxy-3,4-dihydro-1H-isoquinoline-2-carbonyl)-5-methyl-2-octylamino-thieno(2,3-d)(1,3)oxazin-4-one] returned a melting point of 77 to 80 °C. Moreover, in data set [1], the Ymax was 0.339 and the k is 0.284 10-3.s-1.

In turn, `CCCCCCCCOC(=O)c1sc2nc(OC(C)C)oc(=O)c2c1C` [Entry 12, 2-iso-Propoxy-5-methyl-4-oxo-4H-thieno[2,3-d][1,3]oxazine-6-carboxylic acid octyl ester] showed a melting point of 47.5 to 48 °C. Moreover, the k in data set [1] is given as 0.438 10-3.s-1.

For `CCCCCCCCNc1nc2sc(C(=O)NCc3ccc4c(c3)OCO4)c(C)c2c(=O)o1` [Entry 69, 5-Methyl-2-octylamino-4-oxo-4H-thieno(2,3-d)(1,3)oxazine-6-carboxylic acid (2-benzo(1,3)dioxol-5-yl-methyl)-amide], the melting point was in the range of 149 to 152 °C. Moreover, in data set [1], the Ymax was determined as 0.112 and the k is reported as 1.137 10-3.s-1.

`CCCCCCCCNc1nc2sc(C(=O)OCc3ccccc3)c(C)c2c(=O)o1` [Entry 16, 5-Methyl-2-octylamino-4-oxo-4H-thieno[2,3-d][1,3]oxazine-6-carboxylic acid benzyl ester] came in with a melting point of 153.5 to 154 °C. Besides, the k in data set [1] is 1.711 10-3.s-1.

Molecule `CCCCCCCCOc1nc2sc(CCCCCCC)c(C)c2c(=O)o1` [Entry 74, 6-Heptyl-5-methyl-2-octyloxy-thieno[2,3-d][1,3]oxazin-4-one] returned a melting point of 29 to 31 °C. In data set [1], the Ymax worked out at 0.982 and the k is listed as 0.422 10-3.s-1.

`CCCCC(CCCC)Nc1nc2sc(C(=O)OCc3ccccc3)c(C)c2c(=O)o1` [Entry 59, 2-(1-Butyl-pentylamino)-5-methyl-4-oxo-4H-thieno[2,3-d][1,3]oxazine-6-carboxylic acid benzyl ester] displayed a melting point of 136 to 138 °C. Moreover, the k in data set [1] was 0.222 10-3.s-1.

As for `CCCCCCCCNc1nc2sc(Cc3ccccc3)cc2c(=O)o1` [Entry 62, 6-Benzyl-2-octylamino-thieno[2,3-d][1,3]oxazin-4-one], the melting point was in the range of 123 to 124 °C. Moreover, in data set [1], the Ymax amounted to 1.901 and the k was 0.103 10-3.s-1.

In turn, `CCCCCCCCNc1nc2sc(C(=O)N(CCCCCC)CCCCCC)c(C)c2c(=O)o1` [Entry 42, 5-Methyl-2-octylamino-4-oxo-4H-thieno[2,3-d][1,3]oxazine-6-carboxylic acid dihexylamide] returned a melting point of 42 to 45 °C. Also, in data set [1], the Ymax came out at 0.124 and the k is 1.123 10-3.s-1.

Consider `CCCCCCCCCCCCNc1nc2sc(C(=O)NCCCCCCCC)c(C)c2c(=O)o1` [Entry 24, 2-Dodecylamino-5-methyl-4-oxo-4H-thieno[2,3-d][1,3]oxazine-6-carboxylic acid octylamide], for which the melting point was 137.1 to 138 °C. In data set [1], the k was 1.849 10-3.s-1.

Consider `CCCCCCCCNc1nc2sc(C(=O)NC)c(C)c2c(=O)o1` [Entry 31, 5-Methyl-2-octylamino-4-oxo-4H-thieno[2,3-d][1,3]oxazine-6-carboxylic acid methylamide], for which the melting point was in the range of 152.5 to 158 °C. Further, the k in data set [1] is recorded as 0.777 10-3.s-1.

For the molecule `CCCCCCCCCCCCCCCCNc1nc2sc(C(=O)NCCCCCCCC)c(C)c2c(=O)o1` [Entry 26, 2-Hexadecylamino-5-methyl-4-oxo-4H-thieno[2,3-d][1,3]oxazine-6-carboxylic acid octylamide], the melting point was in the range of 146.3 to 147 °C. Further, in data set [1], the k is 1.709 10-3.s-1.

`CCCCCCCCNc1nc2sc(C(=O)NCCCc3ccccc3)c(C)c2c(=O)o1` [Entry 80, 5-Methyl-2-octylamino-4-oxo-4H-thieno(2,3-d)(1,3)oxazine-6-carboxylic acid (3-phenyl-propyl)-amide]: the melting point was in the range of 139 to 141 °C. The inhibition at 0.7 µM in data set [1] was 66.3%.

For the molecule `CCCCCCCCOC(=O)c1sc2nc(OCCCCCCCC)oc(=O)c2c1C` [Entry 9, 5-Methyl-2-octyloxy-4-oxo-4H-thieno[2,3-d][1,3]oxazine-6-carboxylic acid octyl ester], the melting point fell in the range of 58.5 to 60.2 °C. Further, in data set [1], the Ymax was determined as 0.286 and the k is reported as 0.924 10-3.s-1.

As usually defined, the melting point is the temperature, or range, at which the solid turns liquid. The term inhibition denotes the share of the control response that was lost under treatment.
